Reference: US7399493B2, “Anti-irritant botanicals” (priority 2004, dated 2008)

Experiments:
[1] = tested on: irritating action of alpha-hydroxy acids (lactic and glycolic acids); details: Rosmarinic acid 5%; cited from earlier work
HaCat keratinocytes = assay: Retinoid-stimulated autocrine (RSA) clonal growth assay; format: cell-based, human; details: 10 μM, 48 hours after treatment, relative to untreated control
Procedure: Since retinoids irritate skin leading to epidermal hyperplasia, it is the inventors idea that plant extracts that act as inhibitors of retinoid -stimulated autocrine growth are themselves anti-irritants. This hypothesis was tested using an in vitro keratinocyte culture model.
An immortalized line of human epidermal kertatinocytes, HaCat keratinocytes, can be cultured in a serum-free culture medium. Sterile Petri dishes (35 mm^2) are seeded at 5,000 cells per cm^2 and placed in a humidified CO2 incubator at 37° C. for 3-5 days or until the culture reaches about 30% confluent monolayer growth. The dishes are washed once with ice-cold serum-free media lacking EGF and insulin, and refed 2.5 ml of serum-free culture medium containing 5 ug/ml insulin and retinyl acetate (RA, 3×10^−8 M).—Duplicate control dishes are fixed and stained with 0.2% crystal violet to record the—amount of clonal growth prior to refeeding with fresh RA-containing medium. Test—dishes refed RA and insulin are split into three groups in duplicate. Group A is refed on the RA plus insulin medium. Group B is refed RA plus insulin medium and a TRK inhibitor (PD 15356), and Group C is refed medium containing RA plus insulin and from 0.1 to 5% of a hydroalcoholic botanical extract. All dishes are adjusted to have the same final concentration of alcohol (1%). All dishes are placed back in the incubator for 2 and 4 days. […]

Row | SMILES | reduction of the irritating action of alpha-hydroxy acids [1] | inhibition of RSA clonal growth (HaCat keratinocytes)
1 | O=C(/C=C/c1ccc(O)c(O)c1)O[C@H](Cc1ccc(O)c(O)c1)C(=O)O [Rosmarinic acid] | reduce by more than three-fold | 
2 | O.O.O=c1c(O)c(-c2ccc(O)c(O)c2)oc2cc(O)cc(O)c12 [quercetin dihydrate] |  | completely inhibited
